Measured values from patent publication US20080292736A1, “Bioavailability enhancing activity of carum carvi extracts and fractions thereof” (COUNCIL OF SCIENTIFIC AND INDUSTRIAL RESEARCH, priority 2001, published 2008).
Read-outs that look alike come from different tables or passages of the source.

Tests used:
[1] = rat, in vivo; for % Enhancement in bioavailability, BE from Zingiber officinale: 35 mg/kg; for % Enhancement in bioavailability, Carum carvi (Cc) Extr.: 30 mg/kg
[2] = Enhancement of bioavailability of drugs given to rats with bioenhancers (plasma drug level by HPLC); conditions: for % Enhancement in bioavailability, BE from Carum carvi: drug with Carum carvi bioenhancer (aqueous or 50% alcoholic extract 30 mg/kg or Fraction No. 1 15 mg/kg), drug dose mg/kg
[3] = drug with piperine; background statement; cited from earlier work

Molecule	% Enhancement in bioavailability, Carum carvi + Piperine [1]	% Enhancement in bioavailability, Carum carvi + Zingiber officinale [1]	% Enhancement in bioavailability, BE from Zingiber officinale [1]	bioenhancing effect of piperine on the drug [3]	% Enhancement in bioavailability, Carum carvi + Zingiber officinale, Extr. (Cc) [1]	% Enhancement in bioavailability, Carum carvi + Zingiber officinale, Frac 1. (Cc) [1]	% Enhancement in bioavailability, Carum carvi + piperine, Extr. (Cc) [1]	% Enhancement in bioavailability, Carum carvi + piperine, Frac 1. (Cc) [1]	% Enhancement in bioavailability, Carum carvi (Cc) Extr. [1]	further results
CCOC(=O)C1=C(COCCN)NC(C)=C(C(=O)OC)C1c1ccccc1Cl (stereo not shown) [Amlodipine]	50%	65%	68%	–	–	–	–	–	–	% Enhancement in bioavailability, BE from Carum carvi [2]: Nil
NNC(=O)c1ccncc1 [Isoniazid]	nil	nil	Nil	nil or marginal	–	–	–	–	–	% Enhancement in bioavailability, BE from Carum carvi [1]: Nil
NC(=O)c1cnccn1 [Pyrazinamide]	50%	55%	Nil	nil or marginal	–	–	–	–	–	% Enhancement in bioavailability, BE from Carum carvi [1]: 45%
CO[C@H]1/C=C/O[C@@]2(C)Oc3c(C)c(O)c4c(O)c(c(/C=N/N5CCN(C)CC5)c(O)c4c3C2=O)NC(=O)/C(C)=C\C=C\[C@H](C)[C@H](O)[C@@H](C)[C@@H](O)[C@@H](C)[C@H](OC(C)=O)[C@@H]1C [Rifampicin]	–	–	–	highly significant	–	–	–	–	–	% Enhancement in bioavailability, BE from Carum carvi [2]: 110%; % Enhancement in bioavailability, Carum carvi + Zingiber officinale ([2]; drug with Carum carvi bioenhancer and Zingiber officinale 35 mg/kg, drug dose as in row): 140%; % Enhancement in bioavailability, Carum carvi + Piperine ([2]; drug with Carum carvi bioenhancer and piperine 8 mg/kg, drug dose as in row): 170%; % Enhancement in bioavailability, BE from Zingiber officinale ([2]; drug with Zingiber officinale 50% alcoholic extract of fresh ginger 35 mg/kg, drug dose as in row): 65%; % Enhancement in bioavailability, Piperine as BE ([2]; drug with piperine 8 mg/kg, drug dose as in row): 45%
C[C@@H]1O[C@@H](OC[C@H]2O[C@@H](Oc3c(-c4ccc(O)c(O)c4)oc4cc(O)cc(O)c4c3=O)[C@H](O)[C@@H](O)[C@@H]2O)[C@H](O)[C@H](O)[C@H]1O [Rutin]	–	–	42%	–	34%	42%	36%	40%	34%	–
[Se] [Selenium]	–	–	Nil	–	nil	nil	Nil	nil	Nil	–
C=CC[C@@H]1/C=C(\C)C[C@H](C)C[C@H](OC)[C@H]2O[C@@](O)(C(=O)C(=O)N3CCCC[C@H]3C(=O)O[C@H](/C(C)=C/[C@@H]3CC[C@@H](O)[C@H](OC)C3)[C@H](C)[C@@H](O)CC1=O)[C@H](C)C[C@@H]2OC [Tacrolimus]	95%	114%	75%	–	–	–	–	–	–	% Enhancement in bioavailability, BE from Carum carvi [1]: 90%
CC(C)[C@H](N)C(=O)O [Valine]	–	–	21%	–	32%	38%	22%	29%	16%	–
O=C1O[C@H]([C@@H](O)CO)C(O)=C1O [Vit C]	–	–	Nil	–	Nil	Nil	Nil	Nil	Nil	–
CCCNC(=O)NS(=O)(=O)c1ccc(Cl)cc1 [chlorpropamide]	–	–	–	does not enhance	–	–	–	–	–	–
Silymarin	–	–	33%	–	38%	41%	36%	45%	31%	–
Vitamin A	–	–	Nil	–	20%	27%	13%	16%	17%	–
